Test results taken from PubChem BioAssay AID2305 (GlaxoSmithKline (GSK), 2010).

These molecules were tested on P. falciparum 3D7 growth, pLDH absorbance (assay: P. falciparum 3D7 growth inhibition, dose response, strain 3D7 (AID 2305)).
`COc1cc(C=NNc2cc(C)nc3ccccc23)cc(OC)c1OC` was tested, and the IC50 was 730 nM.
In the case of `CCOc1c(Br)cc(Cl)cc1CNCCCNc1nc2ccccc2[nH]1`, the IC50 is reported as 690 nM.
Molecule `Nc1cccc(CNCc2cccc(-c3cccc(-c4nc5ccc(C(F)(F)F)cc5[nH]4)c3)c2)c1` has an IC50 of 510 nM.
`Cc1ccc(O)cc1Nc1ccnc2cc(-c3ccccn3)ccc12` was tested, and the IC50 was 760 nM.
With `CNCCNCc1cccc(-c2ccc(-c3nc4ccccc4[nH]3)cc2)c1` the IC50 was 740 nM.
`CC1CCCN(C(=O)C(C)Nc2cc(Cl)ccc2N2CCOCC2)C1` (stereo not given) showed an IC50 of 320 nM.
Molecule `CN(c1ccccc1C(=O)Nc1cc(Cl)ccc1Oc1ccccc1)S(=O)(=O)c1ccccc1` has an IC50 of 740 nM.
For `COCCOc1ccc(Nc2nccc(-c3c(-c4cccc(NC(=O)c5c(F)cccc5F)c4)nn4ccccc34)n2)cc1Cl`, the IC50 was 360 nM.
`CN(C)CCOc1ccc(NC(=O)Nc2ccnc3c(Br)cccc23)cc1Cl` gave an IC50 of 840 nM.
`Cc1cc(-c2ccc3c(c2)CCN(CCC2CCC(NC(=O)/C=C/c4ccccc4F)CC2)CC3)on1` (stereo not given) gave an IC50 of 810 nM.
Molecule `Cc1ccc(O)c(-c2cc(C(=O)Nc3ccc(S(=O)(=O)N4CCCCCC4)cc3)[nH]n2)c1` has an IC50 of 710 nM.
In the case of `Cc1ccc2c(=O)cc(CCc3cccc(F)c3F)n(CC(=O)N(Cc3ccc(-c4ccc(C(F)(F)F)cc4)cc3)C3CCN(C)CC3)c2n1`, the IC50 is reported as 1260 nM.
`Cc1cc(C(=O)CSc2nc3ccccc3n2-c2ccccc2)c(C)n1C1CCS(=O)(=O)C1` (stereo not given) gave an IC50 of 1000 nM.
In the case of `Nc1c(C(=O)NCCCCN2CCN(c3nsc4ccccc34)CC2)sc2ccccc12`, the IC50 is reported as 1320 nM.
`CNC(=O)c1ccccc1Nc1nc(Nc2ccc(N3CCOCC3)cc2)ncc1Cl` was tested, and the IC50 was 730 nM.
Molecule `O=C(CCCCCNC(=O)c1ccc(O)c(-c2ccc(Cl)c(Cl)c2)c1)NC1CCCCCC1` has an IC50 of 950 nM.
For `COc1ccc2nccc([C@@H](O)CN3CCC(NCc4nc5c([N+](=O)[O-])cccc5[nH]4)CC3)c2c1`, the IC50 was 710 nM.
`CCC(C)(C)c1ccc(OCC(O)CN2CCCCC2)c(C(C)(C)CC)c1` (stereo not given) was tested, and the IC50 was 1300 nM.
`CN1CCCN(Cc2ccc(-c3cccc(NC(=O)c4cccc(C#N)c4)c3)cc2)CC1` gave an IC50 of 650 nM.
`COc1cc(NC(=O)Nc2ccnc3ccccc23)cc(OC)c1` was tested, and the IC50 was 470 nM.
Molecule `C=CCn1c(SCC(=O)Nc2cc(C)ccc2OC)nc2sc(C)cc2c1=O` has an IC50 of 420 nM.
For `COc1ccc(CNCCc2cccs2)cc1-c1ccc(OC)c(S(=O)(=O)NCCN2CCCC2)c1`, the IC50 was 1410 nM.
`Cc1[nH]c(C)c(-c2ccc(-c3ccc(OC(F)(F)F)cc3)cc2)c(=O)c1Br` gave an IC50 of 40 nM.
`COc1ccc(CN2CCC(CNCCc3ccccc3Oc3ccccc3)CC2)cc1` gave an IC50 of 1100 nM.
With `CCNc1cc(C)nc(Nc2ccc(NC(=O)c3ccccc3Br)cc2)n1` the IC50 was 740 nM.
For `COc1cc(NC(=O)c2sc(-c3ccc(Cl)cc3)cc2NC(=O)CN2CC[C@@H](O)C2)ccc1OCCN1CCCC1`, the IC50 was 800 nM.
Molecule `CC(C)(C)c1cc(C(=O)N2CCN(c3nccnc3C#N)CC2)n(Cc2ccccc2)n1` has an IC50 of 760 nM.
`Nc1c(-c2ccc(C(=O)NCCNCc3ccccc3)cc2)cnn1-c1ccc(C(F)(F)F)cc1` was tested, and the IC50 was 1160 nM.
`COc1ccc(-c2ccc(CNC(=O)c3ccc(C#N)cc3)c(F)c2)cc1CN1CCCN(C)CC1` showed an IC50 of 1140 nM.
With `COc1cccc(CN2CCC(CCOC(c3ccccc3)c3ccc(Cl)cc3)CC2)c1O` (stereo not given) the IC50 was 710 nM.
With `COc1ccc(OC)c(-c2ccc(=O)n(CC(=O)Nc3cccc4ccccc34)n2)c1` the IC50 was 900 nM.
`NC1=NC2(CCCCC2)N(Cc2ccc(Cl)c(Cl)c2)C(N)=N1` showed an IC50 of 620 nM.
For `CCc1nc2nc(C)cc(Nc3ccc4c(c3)OCCO4)n2n1`, the IC50 was 1290 nM.
`COc1ccc2nccc([C@@H](O)CN3CCC(NC(=O)Cc4cc5ccccc5s4)CC3)c2c1` was tested, and the IC50 was 910 nM.
Work on `COc1ccccc1CCNc1nc(C)cc(N[C@@H](Cc2ccccc2)C(=O)NCCc2ccccc2)n1` yielded an IC50 of 1110 nM.
`CCOC(=O)c1c(-c2ccccc2)c(C(=O)OCC)n2ccccc12` gave an IC50 of 610 nM.
`CCc1c(CCNCCCCCCNCCc2ccc(Br)cc2)ccc(OC)c1OC` gave an IC50 of 230 nM.
In the case of `CC1(C)N=C(N)N=C(N)N1c1ccc(Br)cc1`, the IC50 is reported as 10 nM.
Work on `CCCCNC(=O)[C@H](CC1CCCCC1)NC(=O)c1ccc(O)c(-c2ccc(Cl)c(Cl)c2)c1` yielded an IC50 of 160 nM.
`O=S1(=O)NC2(CCN(CCc3ccc(Cl)cc3)CC2)Nc2cc(F)cc(F)c21` gave an IC50 of 1460 nM.
